# Test results as given in patent EP4624465A1, “COMPOUND SERVING AS DDR1 KINASE INHIBITOR, AND MEDICINE” (Nippon Shinyaku Co., Ltd., priority 2022, dated 2024).
# Target: DDR1 kinase (Homo sapiens, UniProt Q08345)
# Test: Evaluation of DDR1 kinase inhibition (LANCE Ultra TR-FRET kinase assay)
# Type: biochemical
# Set-up: purchased Carna Biosciences 08-113
# Conditions: DDR1 protein 0.5 nM, LANCE Ultra ULight-poly GAT substrate, 2 hours at room temperature, duplicate; read-out: DDR-1 IC50
# DDR1 kinase, sequence (Q08345 19-876 isoform Q08345-2 limits assumed): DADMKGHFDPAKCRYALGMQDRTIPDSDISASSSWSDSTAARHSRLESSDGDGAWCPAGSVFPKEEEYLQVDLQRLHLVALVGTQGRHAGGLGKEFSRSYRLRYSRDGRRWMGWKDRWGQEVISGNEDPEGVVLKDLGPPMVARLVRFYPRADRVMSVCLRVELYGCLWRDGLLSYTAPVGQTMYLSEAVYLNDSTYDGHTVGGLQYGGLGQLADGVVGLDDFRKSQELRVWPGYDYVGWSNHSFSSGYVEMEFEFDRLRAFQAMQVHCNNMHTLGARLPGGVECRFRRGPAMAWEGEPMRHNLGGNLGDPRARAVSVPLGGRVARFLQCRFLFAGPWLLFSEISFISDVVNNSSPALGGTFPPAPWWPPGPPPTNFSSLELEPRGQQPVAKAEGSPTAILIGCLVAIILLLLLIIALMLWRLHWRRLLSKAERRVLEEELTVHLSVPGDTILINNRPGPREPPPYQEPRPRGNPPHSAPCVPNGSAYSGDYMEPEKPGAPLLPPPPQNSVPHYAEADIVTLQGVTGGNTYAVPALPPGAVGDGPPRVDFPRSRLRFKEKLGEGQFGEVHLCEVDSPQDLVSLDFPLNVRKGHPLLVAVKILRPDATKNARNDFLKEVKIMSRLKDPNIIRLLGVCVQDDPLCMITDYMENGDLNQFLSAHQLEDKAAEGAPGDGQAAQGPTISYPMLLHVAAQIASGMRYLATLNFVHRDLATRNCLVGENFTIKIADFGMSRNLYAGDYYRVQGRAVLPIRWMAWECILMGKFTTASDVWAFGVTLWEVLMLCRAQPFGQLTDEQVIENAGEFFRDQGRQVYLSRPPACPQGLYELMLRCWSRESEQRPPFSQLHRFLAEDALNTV
row,SMILES,IC50 [nM]
1,"CC1(c2nn(CC(=O)N3CCC[C@H]3C(F)(F)F)c3ccccc23)CN(C(=O)c2cc(N)ncc2F)C1 [Compound E-271, 2-{3-[1-(2-amino-5-fluoropyridine-4-carbonyl)-3-methylazetidin-3-yl]-1H-indazol-1-yl}-1-[(2S)-2-(trifluoromethyl)pyrrolidin-1-yl]ethan-1-one]",4
2,"Cc1c(C(=O)N2CC(c3nn(CC(=O)N4CCC[C@H]4COC(F)(F)F)c4cncc(F)c34)C2)ccnc1N [Compound E-44, 2-{3-[1-(2-amino-3-methylpyridine-4-carbonyl)azetidin-3-yl]-4-fluoro-1H-pyrazolo[3,4-c]pyridin-1-yl]-1-[(2S)-2-[(trifluoromethoxy)methyl]pyrrolidin-1-yl]ethan-1-one di-p-toluenesulfonate]",9.2
3,O=C(c1ccnc2[nH]ncc12)N1CC(c2nn(CC(=O)N3CCC[C@H]3C(F)(F)F)c3cc(F)cc(F)c23)C1 [Compound E-17],0.3
4,"Nc1cc(C(=O)N2CC(c3nn(CC(=O)N4CCC[C@@H]4CO)c4cc(F)cc(F)c34)C2)ccn1 [Compound E-36, 2-{3-[1-(2-aminopyridine-4-carbonyl)azetidin-3-yl]-4,6-difluoro-1H-indazol-1-yl}-1-[(2R)-2-(hydroxymethyl)pyrrolidin-1-yl]ethan-1-one]",270
5,"CC1(c2nn(CC(=O)N3CCC[C@H]3C(F)(F)F)c3ccccc23)CN(C(=O)c2ccnc(N)c2)C1 [Compound E-6, 2-{3-[1-(2-aminopyridine-4-carbonyl)-3-methylazetidin-3-yl]-1H-indazol-1-yl}-1-[(2S)-2-(trifluoromethyl)pyrrolidin-1-yl]ethan-1-one]",7.1
6,"Nc1cc(C(=O)N2CC(c3nn(Cc4nnc(-c5ccc(F)cc5)o4)c4cccc(F)c34)C2)ccn1 [Compound E-20, 4-[3-(4-fluoro-1-{[5-(4-fluorophenyl)-1,3,4-oxadiazol-2-yl]methyl}-1H-indazol-3-yl)azetidine-1-carbonyl]pyridin-2-amine]",84
7,"Nc1cc(C(=O)N2CC(c3nn(CC4CCC(F)(F)CC4)c4cc(F)cc(F)c34)C2)ccn1 [Compound E-57, 4-(3-{1-[(4,4-difluorocyclohexyl)methyl]-4,6-difluoro-1H-indazol-3-yl}azetidine-1-carbonyl)pyridin-2-amine]",140
8,"CN(CC1CC(F)(F)C1)C(=O)Cn1nc(C2CN(C(=O)c3cc(N)ncc3F)C2)c2ccccc21 [Compound E-256, 2-{3-[1-(2-amino-5-fluoropyridine-4-carbonyl)azetidin-3-yl]-1H-indazol-1-yl]-N-[(3,3-difluorocyclobutyl)methyl]-N-methylacetamide]",2
9,"Nc1nccc(C(=O)N2CC(c3nn(CC(=O)N4CCC[C@H]4C(F)(F)F)c4cc(F)c(F)cc34)C2)n1 [Compound E-283, 2-{3-[1-(2-aminopyrimidine-4-carbonyl)azetidin-3-yl]-5,6-diffuoro-1H-indazol-1-yl}-1-[(2S)-2-(trifluoromethyl)pyrrolidin-1-yl}ethan-1-one]",4.5
10,"Nc1cc(C(=O)N2CC(O)(c3nn(CC(=O)N4CCC[C@H]4C(F)(F)F)c4ccccc34)C2)c(F)cn1 [Compound E-281, 2-{3-[1-(2-amino-5-fluoropyridine-4-carbonyl)-3-hydroxyazetidin-3-yl]-1H-indazol-1-yl}-1-[(28)-2-(trifluoromethyl)pyrrolidin-1-yl]ethan-1-one]",11
11,"Nc1cc(C(=O)N2CC(c3nn(CC(=O)NC4CC5CCC4C5)c4cccc(F)c34)C2)ccn1 (stereo not drawn) [Compound E-238, 2-{3-[1-(2-aminopyridine-4-carbonyl)azetidin-3-yl]-4-fluoro-1H-indazol-1-yl}-N-{bicyclo[2.2.1]heptan-2-yl}acetamide]",5.6
12,"O=C(c1cn[nH]c1C(F)(F)F)N1CC(c2nn(CC(=O)N3CCC[C@H]3C(F)(F)F)c3cc(F)cc(F)c23)C1 [Compound E-166, 2-(4,6-difluoro-3-{1-[5-(trifluoromethyl)-1H-pyrazole-4-carbonyl]azetidin-3-yl}-1H-indazol-1-yl)-1-[(2S)-2-(trifluoromethyl)pyrrolidin-1-yl]ethan-1-one]",150
13,"Nc1cc(C(=O)N2CC(c3nn(CC(=O)NC45CC(C4)C5)c4cccc(F)c34)C2)ccn1 [Compound E-239, 2-{3-[1-(2-aminopyridine-4-carbonyl)azetidin-3-yl]-4-fluoro-1H-indazol-1-yl}-N-{bicyclo[1.1.1]pentan-1-yl}acetamide]",3.3
14,"Nc1cc(C(=O)N2CC(c3nn(CC(=O)N4CCCc5ccccc54)c4cc(F)cc(F)c34)C2)ccn1 [Compound E-158, 2-{3-[1-(2-aminopyridine-4-carbonyl)azetidin-3-yl]-4,6-difluoro-1H-indazol-1-yl}-1-(1,2,3,4-tetrahydroquinolin-1-yl)ethan-1-one]",0.6
15,"C[C@H]1COC[C@H](C)N1C(=O)Cn1nc(C2CN(C(=O)c3cc(N)ncc3F)C2)c2c(F)cc(F)cc21 [Compound E-182, 2-{3-[1-(2-amino-5-fluoropyridine-4-carbonyl)azetidin-3-yl]-4,6-difluoro-1H-indazol-1-yl}-1-[(3S,5S)-3,5-dimethylmorpholin-4-yl]ethan-1-one]",12
16,"Cc1ccc(-c2nc(Cn3nc(C4CN(C(=O)c5ccnc(N)c5)C4)c4c(F)cccc43)no2)nn1 [Compound E-154, 4-[3-(4-fluoro-1-{[5-(6-methylpyridazin-3-yl)-1,2.4-oxadiazol-3-yl}methyl}-1H-indazol-3-yl)azetidine-1-carbony1]pyridin-2-amine]",270
17,"Nc1cc(C(=O)N2CC(c3nn(CC(=O)N4CCOc5ccccc54)c4cc(F)cc(F)c34)C2)ccn1 [Compound E-159, 2-{3-{1-(2-aminopyridine-4-carbonyl)azetidin-3-yl]-4,6-difluoro-1H-indazol-1-yl]-1-(3,4-dihydro-2H-1,4-benzoxazin-4-yl)ethan-1-one]",1.2
18,"Nc1nccc(C(=O)N2CC(c3nn(CC(=O)N4CCO[C@@H](C(F)(F)F)C4)c4cc(F)cc(F)c34)C2)c1F [Compound E-184, 2-{3-[1-(2-amino-3-fluoropyridine-4-carbonyl)azetidin-3-yl]-4,6-difluoro-1H-indazol-1-yl}-1-[(2R)-2-(trifluoromethyl)morpholin-4-yl]ethan-1-one p-toluenesulfonate]",3
19,"CC1(C)CCc2c(c(C3CN(C(=O)c4ccnc(N)n4)C3)nn2CC(=O)N2CCC[C@H]2C(F)(F)F)C1 [Compound E-295, 2-{3-[1-(2-aminopyrimidine-4-carbonyl)azetidin-3-yl]-5,5-dimethyl-4,5,6,7-tetrahydro-1H-indazol-1-yl}-1-[(2S)-2-(trifluoromethyl)pyrrolidin-1-yl]ethan-1-one]",160
20,"Cc1nccc2c1c(C1CN(C(=O)c3ccnc(NC4CC4)c3)C1)nn2CC(=O)N1CCC[C@H]1C(F)(F)F [Compound E-93, 2-(3-{1-[2-(cyclopropylamino)pyridine-4-carbonyl]azetidin-3-yl}-4-methyl-1H-pyrazolo[4,3-c]pyridin-1-yl)-1-[(2S)-2-(trifluoromethyl)pyrrolidin-1-yl]ethan-1-one]",110
21,"Nc1cc(C(=O)N2CC(c3nn(Cc4ccc(C(F)(F)F)cc4)c4cncc(F)c34)C2)ccn1 [Compound E-151, 4-[3-(4-fluoro-1-{[4-(trifluromethyl)phenyl]methyl}-1H-pyrazolo[3,4-c]pyridin-3-yl)azetidine-1-carbonyl]pyridin-2-amine]",160
22,"Nc1cc(C(=O)N2CC(c3nn(CC(=O)N4CCC[C@@H]4C(F)(F)F)c4ccccc34)C2)c(F)cn1 [Compound E-60, 2-{3-[1-(2-amino-5-fluoropyridine-4-carbonyl)azetidin-3-yl]-1H-indazol-1-yl}-1-[(2R)-2-(trifluoromethyl)pyrrolidin-1-yl]ethan-1-one]",6.5
23,"Nc1cc(C(=O)N2CC(c3nn(CC(=O)NC(C4CC4)C4CC4)c4ccccc34)C2)ccn1 [Compound E-224, 2-{3-[1-(2-aminopyridine-4-carbonyl)azetidin-3-yl]-1H-indazol-1-yl}-N-(dicyclopropylmethyl)acetamide]",18
24,"Nc1cc(C(=O)N2CC(c3nn(CC(=O)N4CCO[C@@H](C(F)(F)F)C4)c4ccccc34)C2)ccn1 [Compound E-193, 2-{3-[1-(2-aminopyridine-4-carbonyl)azetidin-3-yl]-1H-indazol-1-yl}-1-[(2R)-2-(trifluoromethyl)morpholin-4-yl]ethan-1-one]",1.5
25,"CC1(C)CCCN1C(=O)Cn1nc(C2CN(C(=O)c3ccnc(N)c3)C2)c2ccccc21 [Compound E-221, 2-{3-[1-(2-aminopyridine-4-carbonyl)azetidin-3-yl]-1H-indazol-1-yl}-1-(2,2-dimethylpyrrolidin-1-yl)ethan-1-one]",4.4
26,"Nc1cc(C(=O)N2CC(c3nn(CC(=O)N4CCC[C@H]4COC(F)(F)F)c4cncc(F)c34)C2)c(F)cn1 [Compound E-58, 2-{3-[1-(2-amino-5-fluoropyridine-4-carbonyl)azetidin-3-yl]-4-fluoro-1H-pyrazolo(3,4-c]pyridin-1-yl}-1-[(2S)-2-[(trifluoromethoxy)methyl]pyrrolidin-1-yl]ethan-1-one di-p-toluenesulfonate]",4.4
27,Nc1cc(C(=O)N2CC(c3nn(CC(=O)N4CCC[C@H]4C(F)(F)F)c4cccnc34)C2)ccn1 [Compound E-120],60
28,"Nc1cc(C(=O)N2CCC(c3nn(Cc4ccc(C(F)(F)F)cn4)c4cccc(F)c34)CC2)ccn1 [Compound E-9, 4-[4-(4-fluoro-1-{[5-(trifluoromethy)pyridin-2-yl]methyl}-1H-indazol-3-yl)piperidine-1-carbonyl]pyridin-2-amine]",14
29,"Nc1cc(C(=O)N2CC(c3nn(CC(=O)N4CCO[C@@H](C(F)(F)F)C4)c4ccccc34)C2)c(F)cn1 [Compound E-192, 2-{3-[1-(2-amino-5-fluoropyridine-4-carbonyl)azetidin-3-yl]-1H-indazol-1-yl}-1-[(2R)-2-(trifluoromethyl)morpholin-4-yl]ethan-1-one]",1.3
30,Cc1c(C(=O)N2CC(c3nn(CC(=O)N4CCC[C@H]4C(F)(F)F)c4ccnc(C)c34)C2)ccnc1N [Compound E-94],150
